Experimental data taken from paper PMC3914206.

Assays:
Format in all cases: binding
panel of 442 kinases [1] = target: T1, panel of 442 kinases (Homo sapiens, UniProt P27448); details: Compound Concentration 10 µM
T1 construct: purchased KINOMEscan
Description: (§1) We assessed the selectivity of members of this scaffold using the KINOMEscan methodology across a near comprehensive panel of 442 kinases [[18,27]].

panel of 442 kinases [2] = target: T2, panel of 442 kinases (Homo sapiens, UniProt P51617); details: Compound Concentration 10 µM
T2 construct: purchased KINOMEscan
Description: as §1

panel of 442 kinases [3] = target: T3, panel of 442 kinases (Homo sapiens, UniProt Q02779); details: Compound Concentration 10 µM
T3 construct: purchased KINOMEscan
Description: as §1

panel of 442 kinases [4] = target: T4, panel of 442 kinases (Homo sapiens, UniProt Q86Y07); details: kinase VRK2; compound concentration 10 µM
T4 construct: purchased KINOMEscan
Description: as §1

T1 sequence (P27448 whole entry): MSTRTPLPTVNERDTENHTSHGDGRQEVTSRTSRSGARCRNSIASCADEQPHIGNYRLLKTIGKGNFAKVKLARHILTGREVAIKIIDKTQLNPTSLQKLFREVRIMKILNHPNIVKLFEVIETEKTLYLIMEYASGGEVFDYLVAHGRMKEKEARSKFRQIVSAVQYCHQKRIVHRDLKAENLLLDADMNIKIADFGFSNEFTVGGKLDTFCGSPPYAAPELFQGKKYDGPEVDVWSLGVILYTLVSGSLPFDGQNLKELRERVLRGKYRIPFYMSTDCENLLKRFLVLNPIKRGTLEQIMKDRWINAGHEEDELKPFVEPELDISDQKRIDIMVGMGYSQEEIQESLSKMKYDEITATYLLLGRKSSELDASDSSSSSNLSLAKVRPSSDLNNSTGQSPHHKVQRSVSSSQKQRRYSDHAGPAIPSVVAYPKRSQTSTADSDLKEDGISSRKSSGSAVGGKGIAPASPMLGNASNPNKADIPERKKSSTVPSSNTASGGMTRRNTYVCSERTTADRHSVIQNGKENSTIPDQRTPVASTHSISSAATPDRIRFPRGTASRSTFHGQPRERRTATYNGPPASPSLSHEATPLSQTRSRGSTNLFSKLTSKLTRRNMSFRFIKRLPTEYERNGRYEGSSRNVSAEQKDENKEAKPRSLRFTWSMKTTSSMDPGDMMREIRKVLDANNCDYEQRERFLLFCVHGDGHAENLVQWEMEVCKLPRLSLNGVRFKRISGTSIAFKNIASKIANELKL
T4 sequence (Q86Y07 whole entry): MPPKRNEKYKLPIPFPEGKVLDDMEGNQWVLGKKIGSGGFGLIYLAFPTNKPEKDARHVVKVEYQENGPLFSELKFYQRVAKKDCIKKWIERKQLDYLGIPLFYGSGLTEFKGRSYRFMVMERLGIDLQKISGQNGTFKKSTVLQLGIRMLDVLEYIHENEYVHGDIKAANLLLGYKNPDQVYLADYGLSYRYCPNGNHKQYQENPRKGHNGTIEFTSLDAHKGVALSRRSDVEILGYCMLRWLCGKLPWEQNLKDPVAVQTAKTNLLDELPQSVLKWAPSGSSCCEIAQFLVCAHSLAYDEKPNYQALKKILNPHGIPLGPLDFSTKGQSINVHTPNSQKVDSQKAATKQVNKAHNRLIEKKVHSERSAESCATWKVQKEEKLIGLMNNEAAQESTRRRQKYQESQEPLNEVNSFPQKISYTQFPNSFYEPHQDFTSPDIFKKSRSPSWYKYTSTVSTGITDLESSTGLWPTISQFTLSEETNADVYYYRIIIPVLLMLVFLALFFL
T2 sequence (P51617 whole entry): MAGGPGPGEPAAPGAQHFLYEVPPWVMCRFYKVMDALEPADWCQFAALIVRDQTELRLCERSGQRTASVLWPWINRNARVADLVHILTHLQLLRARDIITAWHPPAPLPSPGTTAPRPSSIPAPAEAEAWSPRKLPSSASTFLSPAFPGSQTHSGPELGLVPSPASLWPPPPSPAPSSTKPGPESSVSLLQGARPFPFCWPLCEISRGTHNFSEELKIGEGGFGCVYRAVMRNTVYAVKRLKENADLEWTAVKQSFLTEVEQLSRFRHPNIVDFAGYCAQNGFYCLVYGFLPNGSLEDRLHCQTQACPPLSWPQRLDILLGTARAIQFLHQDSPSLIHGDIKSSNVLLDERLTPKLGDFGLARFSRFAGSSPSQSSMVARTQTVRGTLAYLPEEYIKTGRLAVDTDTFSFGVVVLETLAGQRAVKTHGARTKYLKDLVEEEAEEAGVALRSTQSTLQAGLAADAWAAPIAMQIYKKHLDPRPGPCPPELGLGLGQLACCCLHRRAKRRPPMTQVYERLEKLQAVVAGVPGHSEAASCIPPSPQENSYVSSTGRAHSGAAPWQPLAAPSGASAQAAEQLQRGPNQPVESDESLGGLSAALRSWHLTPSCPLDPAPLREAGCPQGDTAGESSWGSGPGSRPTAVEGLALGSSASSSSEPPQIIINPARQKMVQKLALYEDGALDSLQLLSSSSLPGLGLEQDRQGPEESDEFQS
T3 sequence (Q02779 whole entry): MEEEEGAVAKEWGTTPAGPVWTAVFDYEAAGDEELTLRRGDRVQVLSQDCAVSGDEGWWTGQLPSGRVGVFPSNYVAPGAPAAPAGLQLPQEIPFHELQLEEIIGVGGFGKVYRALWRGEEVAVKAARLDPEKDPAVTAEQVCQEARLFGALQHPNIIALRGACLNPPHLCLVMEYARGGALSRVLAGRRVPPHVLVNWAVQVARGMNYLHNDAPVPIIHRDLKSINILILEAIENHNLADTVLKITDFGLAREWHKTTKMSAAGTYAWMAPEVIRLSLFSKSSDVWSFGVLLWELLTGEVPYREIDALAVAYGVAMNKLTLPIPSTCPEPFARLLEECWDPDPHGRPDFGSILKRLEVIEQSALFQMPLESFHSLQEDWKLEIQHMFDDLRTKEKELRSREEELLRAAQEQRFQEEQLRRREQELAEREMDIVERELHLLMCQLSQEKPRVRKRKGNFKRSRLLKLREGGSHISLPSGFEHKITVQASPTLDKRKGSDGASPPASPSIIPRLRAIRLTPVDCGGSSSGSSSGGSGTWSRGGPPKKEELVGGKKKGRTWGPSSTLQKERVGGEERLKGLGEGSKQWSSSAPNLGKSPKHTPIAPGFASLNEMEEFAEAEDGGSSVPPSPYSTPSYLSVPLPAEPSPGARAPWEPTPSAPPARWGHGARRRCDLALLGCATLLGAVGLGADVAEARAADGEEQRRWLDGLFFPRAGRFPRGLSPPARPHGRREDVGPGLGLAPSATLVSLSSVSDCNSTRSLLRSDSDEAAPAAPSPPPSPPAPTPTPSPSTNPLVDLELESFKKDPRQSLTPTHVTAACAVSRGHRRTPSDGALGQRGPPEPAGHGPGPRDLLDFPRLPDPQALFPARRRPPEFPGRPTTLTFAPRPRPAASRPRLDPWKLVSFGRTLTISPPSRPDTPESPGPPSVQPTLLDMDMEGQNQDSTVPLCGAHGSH

Row | SMILES | KINOMEscan: MARK3 (panel of 442 kinases [1]) | KINOMEscan: IRAK1 (panel of 442 kinases [2]) | KINOMEscan: MLK2 (panel of 442 kinases [3]) | % Ctrl, VRK2 (panel of 442 kinases [4]) [% Ctrl]
1 | CCOc1cc(C(=O)N2CCC(N3CCN(C)CC3)CC2)ccc1Nc1ncc2c(n1)N(C1CCCC1)c1ccccc1C(=O)N2C [Compound 26] | 100 | 100 | 100 | 82
2 | COc1cc(C(=O)N2CCC(N3CCN(C)CC3)CC2)ccc1Nc1ncc2c(n1)N1CCc3cccc(c31)C(=O)N2C [Compound 24] |  | 95 | 98 | 100
3 | COc1cc(C(=O)N2CCC(N3CCN(C)CC3)CC2)ccc1Nc1ncc2c(n1)N(C)c1ccccc1C(=O)N2C [15 (LRRK2-IN-1)] | 98 | 100 | 100 | 99
4 | COc1cc(C(=O)N2CCC(N3CCN(C)CC3)CC2)ccc1Nc1ncc2c(n1)N(C1CCCC1)c1ccccc1C(=O)N2C [Compound 25, 11-cyclopentyl-2-((2-methoxy-4-(4-(4-methylpiperazin-1-yl)piperidine-1-carbonyl)phenyl)amino)-5-methyl-5H-benzo[e]pyrimido[5,4-b][1,4]diazepin-6(11H)-one] | 100 | 89 | 96 | 100
